From US9815819B2, “Complement pathway modulators and uses thereof” (priority 2012, dated 2017)
Read-outs that look alike come from different tables or passages of the source.

Target: Recombinant human factor D (Homo sapiens (Human), UniProt P00746)
Assay: Human Complement Factor D Assay: Method 1
Type: biochemical
Details: Factor D inhibition, Method 1: 10 nM factor D, 1 hour incubation with compound at room temperature, substrate Z-Lys-thiobenzyl, fluorescence readout
Description: Recombinant human factor D (expressed in E. coli and purified using standard methods) at 10 nM concentration is incubated with test compound at various concentrations for 1 hour at room temperature in 0.1 M Hepes buffer, pH 7.5, containing 1 mM MgCl2, 1 M NaCl and 0.05% CHAPS. […] IC50 values are calculated from percentage of inhibition of complement factor D-activity as a function of test compound concentration.

Chain of Recombinant human factor D (P00746 26-253): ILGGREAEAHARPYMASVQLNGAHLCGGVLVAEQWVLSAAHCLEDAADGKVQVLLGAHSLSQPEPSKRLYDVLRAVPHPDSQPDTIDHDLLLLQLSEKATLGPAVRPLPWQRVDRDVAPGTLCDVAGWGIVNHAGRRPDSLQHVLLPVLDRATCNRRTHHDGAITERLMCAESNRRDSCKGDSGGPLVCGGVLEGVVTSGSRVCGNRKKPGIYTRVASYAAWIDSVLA

`CC(=O)c1nn(CC(=O)N2[C@@H]3C[C@@H]3C[C@H]2C(=O)N[C@@H]2C[C@@]2(F)c2ccccc2)c2ncccc12` [Example 44, (1R,3S,5R)-2-[2-(3-Acetyl-pyrazolo[3,4-b]pyridin-1-yl)-acetyl]-2-aza-bicyclo[3.1.0] hexane-3-carboxylic acid ((1R,2R)-2-fluoro-2-phenyl-cyclopropyl)-amide] showed an IC50 (read-out: IC50) of 0.066 µM.

In the case of `NC(=O)c1nn(CC(=O)N2[C@@H]3C[C@@H]3C[C@H]2C(=O)NC2CC2(F)c2ccccc2F)c2ccccc12` (single isomer, unassigned) [Example 50], the IC50 (read-out: IC50) is reported as 3.88 µM.

For `CC(=O)c1nn(CC(=O)N2[C@@H]3C[C@@H]3C[C@H]2C(=O)N[C@@H]2C[C@H]2c2cccc(Cl)c2)c2ncccc12` [Example 54, (1R,3S,5R)-2-[2-(3-Acetyl-pyrazolo[3,4-b]pyridin-1-yl)-acetyl]-2-aza-bicyclo[3.1.0]hexane-3-carboxylic acid[(1R,2S)-2-(3-chloro-phenyl)-cyclopropyl]-amide], the IC50 (read-out: IC50) was 0.225 µM.

In the case of `NC(=O)c1nn(CC(=O)N2[C@@H]3C[C@@H]3C[C@H]2C(=O)N[C@@H]2C[C@H]2c2ccccc2)c2ccccc12` [Example 12, 1-{2-Oxo-2-[(1R,3S,5R)-3-((1R,2S)-2-phenyl-cyclopropylcarbamoyl)-2-aza-bicyclo[3.1.0]hex-2-yl]-ethyl}-1H-indazole-3-carboxylic acid amide], the IC50 (read-out: IC50) is reported as 0.06 µM.

`NC(=O)c1nn(CC(=O)N2[C@@H]3C[C@@H]3C[C@H]2C(=O)NC2CCCC(c3ccccc3)C2)c2ccccc12` (single isomer, unassigned) [Example 80] showed an IC50 (IC50 (μM)) of 0.475 µM.

In the case of `CC(=O)c1nn(CC(=O)N2[C@H](C(=O)N[C@@H]3C[C@H]3c3ccccc3)C[C@@]3(CO)C[C@@H]23)c2ncccc12` [Example 28, (1R,3S,5S)-2-[2-(3-Acetyl-pyrazolo[3,4-b]pyridin-1-yl)-acetyl]-5-hydroxymethyl-2-aza-bicyclo[3.1.0]hexane-3-carboxylic acid((1R,2S)-2-phenyl-cyclopropyl)-amide], the IC50 (read-out: IC50) is reported as 0.172 µM.

With `CC(=O)c1nn(CC(=O)N2[C@@H]3C[C@@H]3C[C@H]2C(=O)NC2CC(c3ccccc3)C2)c2ncccc12` (stereo partly drawn) [Example 35, (1R,3S,5R)-2-[2-(3-Acetyl-pyrazolo[3,4-b]pyridin-1-yl)-acetyl]-2-aza-bicyclo[3.1.0] hexane-3-carboxylic acid (3-phenyl-cyclobutyl)-amide] the IC50 (read-out: IC50) was 0.902 µM.

`CC(=O)c1nn(CC(=O)N2[C@@H]3C[C@@H]3C[C@H]2C(=O)N[C@@H]2C[C@H]2c2ccccc2)c2ccccc12` [Example 2, (1R,3S,5R)-2-[2-(3-Acetyl-indazol-1-yl)-acetyl]-2-aza-bicyclo[3.1.0] hexane-3-carboxylic acid ((1R,2S)-2-phenyl-cyclopropyl)-amide] gave an IC50 (read-out: IC50) of 0.029 µM.

For `Cc1cc2c(C(N)=O)nn(CC(=O)N3[C@@H]4C[C@@H]4C[C@H]3C(=O)N[C@@H]3C[C@H]3c3ccccc3)c2cn1` [Example 15, 5-Methyl-1-{2-oxo-2-[(1R,3S,5R)-3-((1R,2S)-2-phenyl-cyclopropylcarbamoyl)-2-aza-bicyclo[3.1.0]hex-2-yl]-ethyl}-1H-pyrazolo[3,4-]pyridine-3-carboxylic acid amide], the IC50 (read-out: IC50) was 0.115 µM.

For `CC(=O)c1nn(CC(=O)N2[C@@H]3C[C@@H]3C[C@H]2C(=O)N[C@@H]2C[C@H]2c2ccccc2F)c2cc(C(=O)O)ccc12` [Example 87, 3-Acetyl-1-(2-{(1R,3S,5R)-3-[(1R,2S)-2-(2-fluoro-phenyl)-cyclopropylcarbamoyl]-2-aza-bicyclo[3.1.0]hex-2-yl}-2-oxo-ethyl)-1H-indazole-6-carboxylic acid], the IC50 (read-out: IC50) was 0.046 µM.

`CC(=O)c1nn(CC(=O)N2[C@@H]3C[C@@H]3C[C@H]2C(=O)N[C@@H]2C[C@H]2c2ccccc2)c2ncccc12` [Example 8, (1R,3S,5R)-2-[2-(3-Acetyl-pyrazolo[3,4-b]pyridin-1-yl)-acetyl]-2-aza-bicyclo[3.1.0]hexane-3-carboxylic acid ((1R,2S)-2-phenyl-yclopropyl)-amide] showed an IC50 (read-out: IC50) of 0.123 µM.
